For 25 molecules, IC50 results are on record in patent publication US20140206681A1, “BTK INHIBITORS” (priority 2013, published 2014).

SMILES strings stand for the structures.

The target in this experiment is T1, BTK enzyme (recombinant full-length BTK, hBTK) (Homo sapiens, UniProt Q06187).
T1 construct: recombinant protein from baculovirus-transfected Sf9 cells: full-length BTK, 6HIS-tag cleaved; 6HIS (cleaved yes); made in house; host or cells: baculovirus-transfected Sf9 cells
T1 sequence (Q06187 whole entry): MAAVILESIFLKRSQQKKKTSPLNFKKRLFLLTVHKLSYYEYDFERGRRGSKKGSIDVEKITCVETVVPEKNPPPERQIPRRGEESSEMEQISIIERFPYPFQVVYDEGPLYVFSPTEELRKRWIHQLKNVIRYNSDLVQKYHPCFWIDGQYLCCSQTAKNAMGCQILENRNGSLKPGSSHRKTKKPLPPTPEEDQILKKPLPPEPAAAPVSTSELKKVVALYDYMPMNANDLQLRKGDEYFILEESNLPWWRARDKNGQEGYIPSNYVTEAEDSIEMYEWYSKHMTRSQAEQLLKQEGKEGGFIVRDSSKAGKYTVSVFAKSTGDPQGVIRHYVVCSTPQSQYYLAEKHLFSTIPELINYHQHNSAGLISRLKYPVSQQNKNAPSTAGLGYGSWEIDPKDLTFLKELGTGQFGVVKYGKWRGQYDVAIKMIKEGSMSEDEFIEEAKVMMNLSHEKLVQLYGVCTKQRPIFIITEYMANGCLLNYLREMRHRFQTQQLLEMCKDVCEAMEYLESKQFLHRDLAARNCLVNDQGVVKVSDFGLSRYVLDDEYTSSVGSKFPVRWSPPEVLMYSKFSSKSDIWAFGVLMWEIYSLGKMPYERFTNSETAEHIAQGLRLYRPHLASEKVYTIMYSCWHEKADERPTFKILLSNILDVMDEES
Kind of experiment: BTK enzyme activity assay, LANCE TR-FRET. Format: biochemical. Particulars: 50 pM hBTK, 2 μM biotin-A5-peptide, 25 μM ATP; 60 min compound & enzyme incubation; read-out: IC50 BTK activity value. (In general: TR-FRET usually uses a lanthanide donor and a delayed reading to cut background.)
On to `Nc1nccn2c([C@@H]3CC[C@H]4CCC(=O)N4C3)nc(-c3ccc(C(=O)Nc4cc(C5CC5)ccn4)c(F)c3)c12` [Example 27, 4-{8-amino-3-[(6R,8aS)-3-oxooctahydroindolizin-6-yl]imidazo[1,5-a]pyrazin-1-yl}-N-(4-cyclopropylpyridin-2-yl)-2-fluorobenzamide], for which the 50% inhibitory concentration (IC50) (commonly the concentration that gives 50% inhibition) amounted to 1.1 nM.

Turning to `Cc1cc(-c2nc([C@@H]3CC[C@H]4CCC(=O)N4C3)n3ccnc(N)c23)ccc1C(=O)Nc1cc(C2CC2)ccn1` [Example 28, 4-{8-amino-3-[(6R,8aS)-3-oxooctahydroindolizin-6-yl]imidazo[1,5-a]pyrazin-1-yl}-N-(4-cyclopropylpyridin-2-yl)-2-methylbenzamide], the half-maximal inhibitory concentration (IC50) came out at 0.64 nM.

With `Nc1nccn2c([C@@H]3CC[C@H]4CCC(=O)N4C3)nc(-c3ccc(C(=O)Nc4cc(C5(F)COC5)ccn4)cc3)c12` [Example 29, 4-{8-amino-3-[(6R,8aS)-3-oxooctahydroindolizin-6-yl]imidazo[1,5-a]pyrazin-1-yl}-N-[4-(3-fluorooxetan-3-yl)pyridin-2-yl]benzamide], the IC50 is 1.9 nM.

In the case of `CC(C)(F)c1ccnc(NC(=O)c2ccc(-c3nc([C@@H]4CC[C@H]5CCC(=O)N5C4)n4ccnc(N)c34)cc2)c1` [Example 30, 4-{8-amino-3-[(6R,8aS)-3-oxooctahydroindolizin-6-yl]imidazo[1,5-a]pyrazin-1-yl}-N-[4-(1-fluoro-1-methylethyl)pyridin-2-yl]benzamide], the IC50 was found to be 0.85 nM.

As for `C[C@H]1OC(=O)N2C[C@H](c3nc(-c4ccc(C(=O)Nc5cc(C6CC6)ccn5)cc4F)c4c(N)nccn34)CC[C@@H]12` [Example 32, 4-{8-amino-3-[(1R,6R,8aS)-1-methyl-3-oxohexahydro[1,3]oxazolo[3,4-a]pyridin-6-yl]imidazo[1,5-a]pyrazin-1-yl}-N-(4-cyclopropylpyridin-2-yl)-3-fluorobenzamide], the IC50 is 0.21 nM.

Take `N#Cc1ccnc(NC(=O)c2ccc(-c3nc([C@@H]4CC[C@H]5CCC(=O)N5C4)n4ccnc(N)c34)cc2F)c1` [Example 34, 4-{8-amino-3-[(6R,8aS)-3-oxooctahydroindolizin-6-yl]imidazo[1,5-a]pyrazin-1-yl}-N-(4-cyanopyridin-2-yl)-2-fluorobenzamide]: the IC50 came out at 2.5 nM.

For the molecule `COc1cc(C(=O)Nc2cc(C#N)ccn2)ccc1-c1nc([C@@H]2CC[C@H]3CCC(=O)N3C2)n2ccnc(N)c12` [Example 35, 4-{8-amino-3-[(6R,8aS)-3-oxooctahydroindolizin-6-yl]imidazo[1,5-a]pyrazin-1-yl}-N-(4-cyanopyridin-2-yl)-3-methoxybenzamide], the concentration for half-maximal inhibition (IC50) was 1.1 nM.

As for `Cc1cc(-c2nc([C@@H]3CC[C@H]4CCC(=O)N4C3)n3ccnc(N)c23)ccc1C(=O)Nc1cc(C#N)ccn1` [Example 36, 4-{8-amino-3-[(6R,8aS)-3-oxooctahydroindolizin-6-yl]imidazo[1,5-a]pyrazin-1-yl}-N-(4-cyanopyridin-2-yl)-2-methylbenzamide], the IC50 is 0.98 nM.

Regarding `C[C@@H]1OC(=O)N2C[C@H](c3nc(-c4ccc(C(=O)Nc5cc(C6CC6)ccn5)cc4F)c4c(N)nccn34)CC[C@@H]12` [Example 37, 4-{8-amino-3-[(1S,6R,8aS)-1-methyl-3-oxohexahydro[1,3]oxazolo[3,4-a]pyridin-6-yl]imidazo[1,5-a]pyrazin-1-yl}-N-(4-cyclopropylpyridin-2-yl)-3-fluorobenzamide], the IC50 came out at 0.39 nM.

Turning to `Nc1nccn2c([C@@H]3CC[C@H]4CCC(=O)N4C3)nc(-c3ccc(C(=O)Nc4cc(OC5CC5)ccn4)cc3F)c12` [Example 43, 4-{8-amino-3-[(6R,8aS)-3-oxooctahydroindolizin-6-yl]imidazo[1,5-a]pyrazin-1-yl}-N-[4-(cyclopropyloxy)pyridin-2-yl]-3-fluorobenzamide], the IC50 came out at 0.13 nM.

As for `Nc1nccn2c([C@@H]3CC[C@@H]4CNCC(=O)N4C3)nc(-c3ccc(C(=O)Nc4cc(C(F)(F)F)ccn4)cc3)c12` [Example 54, 4-{8-amino-3-[(7R,9aR)-4-oxooctahydro-2H-pyrido[1,2-a]pyrazin-7-yl]imidazo[1,5-a]pyrazin-1-yl}-N-[4-(trifluoromethyl)pyridin-2-yl]benzamide], the 50% inhibitory concentration (IC50) stood at 9.6 nM.

In the case of `Nc1nccn2c([C@@H]3CC[C@H]4COCCN4C3)nc(-c3ccc(C(=O)Nc4cc(C(F)(F)F)ccn4)cc3)c12` [Example 55, 4-{8-amino-3-[(7R,9aS)-octahydropyrido[2,1-c][1,4]oxazin-7-yl]imidazo[1,5-a]pyrazin-1-yl}-N-[4-(trifluoromethyl)pyridin-2-yl]benzamide], the IC50 is 0.3 nM.

As to `C[C@@H]1CC(=O)N2C[C@H](c3nc(-c4ccc(C(=O)Nc5cc(C(F)(F)F)ccn5)cc4)c4c(N)nccn34)CC[C@@H]12` [Example 62, 4-{8-amino-3-[(1R,6R,8aS)-1-methyl-3-oxooctahydroindolizin-6-yl]imidazo[1,5-a]pyrazin-1-yl}-N-[4-(trifluoromethyl)pyridin-2-yl]benzamide], the 50% inhibitory concentration (IC50) was determined as 6.7 nM.

With `Nc1nccn2c([C@@H]3CC[C@@H]4C[C@H](O)C(=O)N4C3)nc(-c3ccc(C(=O)Nc4cc(C(F)(F)F)ccn4)cc3)c12` [Example 75, 4-{8-amino-3-[(2S,6R,8aR)-2-hydroxy-3-oxooctahydroindolizin-6-yl]imidazo[1,5-a]pyrazin-1-yl}-N-[4-(trifluoromethyl)pyridin-2-yl]benzamide], the half-inhibitory concentration (IC50) turned out to be 7.6 nM.

For `CC(C)(C(=O)O)N1CC(=O)N2C[C@H](c3nc(-c4ccc(C(=O)Nc5cc(C(F)(F)F)ccn5)cc4)c4c(N)nccn34)CC[C@H]2C1` [Example 86, 2-((7R,9aS)-7-(8-amino-1-(4-((4-(trifluoromethyl)pyridin-2-yl)carbamoyl)phenyl)imidazo[1,5-a]pyrazin-3-yl)-4-oxohexahydro-1H-pyrido[1,2-a]pyrazin-2(6H)-yl)-2-methylpropanoic acid], the IC50 amounted to 0.45 nM.

On to `CC1(C)C[C@@H]2CC[C@@H](c3nc(-c4ccc(C(=O)Nc5cc(C(F)(F)F)ccn5)cc4)c4c(N)nccn34)CN2C1=O` [Example 95, 4-{8-amino-3-[(6R,8aS)-2,2-dimethyl-3-oxooctahydroindolizin-6-yl]imidazo[1,5-a]pyrazin-1-yl}-N-[4-(trifluoromethyl)pyridin-2-yl]benzamide], for which the IC50 came out at 11.4 nM.

Consider `CCOc1cc(C(=O)Nc2cc(C(F)(F)F)ccn2)ccc1-c1nc([C@@H]2CC[C@H]3CC(C)(C)C(=O)N3C2)n2ccnc(N)c12` [Example 113, 4-{8-amino-3-[(6R,8aS)-2,2-dimethyl-3-oxooctahydroindolizin-6-yl]imidazo[1,5-a]pyrazin-1-yl}-3-ethoxy-N-[4-(trifluoromethyl)pyridin-2-yl]benzamide], for which the half-maximal inhibitory concentration (IC50) was determined as 0.54 nM.

Consider `Cc1c(C(F)(F)F)ccnc1NC(=O)c1ccc(-c2nc([C@@H]3CC[C@H]4CCC(=O)N4C3)n3ccnc(N)c23)cc1` [Example 122, 4-{8-amino-3-[(6R,8aS)-3-oxooctahydroindolizin-6-yl]imidazo[1,5-a]pyrazin-1-yl}-N-[3-methyl-4-(trifluoromethyl)pyridin-2-yl]benzamide], for which the IC50 was found to be 12.4 nM.

`Nc1nccn2c([C@@H]3CC[C@H]4CCC(=O)N4C3)nc(-c3ccc(C(=O)Nc4cc(C(F)(F)F)cc(C5CCC5)n4)cc3)c12` [Example 126, 4-{8-amino-3-[(6R,8aS)-3-oxooctahydroindolizin-6-yl]limidazo[1,5-a]pyrazin-1-yl}-N-[6-cyclobutyl-4-(trifluoromethyl)pyridin-2-yl]benzamide]: the half-maximal inhibitory concentration (IC50) was 766 nM.

In the case of `CCOc1cc(C(=O)Nc2cc(C(F)(F)F)ccn2)c(F)cc1-c1nc([C@@H]2CC[C@H]3CCC(=O)N3C2)n2c(Cl)cnc(N)c12` [Example 133, 4-{8-amino-5-chloro-3-[(6R,8aS)-3-oxooctahydroindolizin-6-yl]imidazo[1,5-a]pyrazin-1-yl}-5-ethoxy-2-fluoro-N-[4-(trifluoromethyl)pyridin-2-yl]benzamide], the IC50 came to 0.55 nM.

In the case of `COc1cc(C(=O)Nc2cc(C(F)(F)F)ccn2)ccc1-c1nc([C@@H]2CC[C@H]3CCC(=O)N3C2)n2c(Cl)cnc(N)c12` [Example 143, 4-{8-amino-5-chloro-3-[(6R,8aS)-3-oxooctahydroindolizin-6-yl]imidazo[1,5-a]pyrazin-1-yl}-3-methoxy-N-[4-(trifluoromethyl)pyridin-2-yl]benzamide], the IC50 came out at 0.22 nM.

For the molecule `Nc1ncc(Cl)n2c([C@@H]3CC[C@H]4CCC(=O)N4C3)nc(-c3ccc(C(=O)Nc4cc(C(F)(F)F)ccn4)cc3OC3CC3)c12` [Example 144, 4-{8-amino-5-chloro-3-[(6R,8aS)-3-oxooctahydroindolizin-6-yl]imidazo[1,5-a]pyrazin-1-yl}-3-(cyclopropyloxy)-N-[4-(trifluoromethyl)pyridin-2-yl]benzamide], the IC50 came to 0.5 nM.

Take `Cc1cnc(NC(=O)c2ccc(-c3nc([C@@H]4CC[C@H]5CCC(=O)N5C4)n4c(Cl)cnc(N)c34)cc2)s1` [Example 154, 4-{8-amino-5-chloro-3-[(6R,8aS)-3-oxooctahydroindolizin-6-yl]imidazo[1,5-a]pyrazin-1-yl}-N-(5-methyl-1,3-thiazol-2-yl)benzamide]: the half-maximal inhibitory concentration (IC50) came out at 0.81 nM.

For `Cn1nc(NC(=O)c2ccc(-c3nc([C@@H]4CC[C@H]5CCC(=O)N5C4)n4ccnc(N)c34)cc2)cc1C(F)(F)F` [Example 171, 4-{8-amino-3-[(6R,8aS)-3-oxooctahydroindolizin-6-yl]imidazo[1,5-a]pyrazin-1-yl}-N-[1-methyl-5-(trifluoromethyl)-1H-pyrazol-3-yl]benzamide], the IC50 came out at 0.41 nM.

For `Nc1nccn2c([C@@H]3CC[C@H]4CCC(=O)N4C3)nc(-c3ccc(C(=O)Nc4ncc[nH]4)cc3)c12` [Example 172, 4-{8-amino-3-[(6R,8aS)-3-oxooctahydroindolizin-6-yl]imidazo[1,5-a]pyrazin-1-yl}-N-1H-imidazol-2-ylbenzamide], the concentration for half-maximal inhibition (IC50) is 50.7 nM.
